Reference: patent publication US20180155344A1, “TRICYCLIC PIPERIDINE COMPOUNDS” (ACTELION PHARMACEUTICALS LTD, priority 2015, published 2018)

Key:
5HT [1] = settings: cited from earlier work
5HT [2] = settings: phase IIA study, qid; cited from earlier work
5HT [3] = settings: 200 mg/kg i.p. qid for 3 days, cited from earlier work
cholangiocarcinoma = settings: xenograft model of cholangiocarcinoma; cited from earlier work
5HT [4] = settings: mice, cited from earlier work
human TPH1 = molecular target: T1, human TPH1 (Homo sapiens, UniProt P17752); experiment: biochemical
T1 sequence (P17752 1-444): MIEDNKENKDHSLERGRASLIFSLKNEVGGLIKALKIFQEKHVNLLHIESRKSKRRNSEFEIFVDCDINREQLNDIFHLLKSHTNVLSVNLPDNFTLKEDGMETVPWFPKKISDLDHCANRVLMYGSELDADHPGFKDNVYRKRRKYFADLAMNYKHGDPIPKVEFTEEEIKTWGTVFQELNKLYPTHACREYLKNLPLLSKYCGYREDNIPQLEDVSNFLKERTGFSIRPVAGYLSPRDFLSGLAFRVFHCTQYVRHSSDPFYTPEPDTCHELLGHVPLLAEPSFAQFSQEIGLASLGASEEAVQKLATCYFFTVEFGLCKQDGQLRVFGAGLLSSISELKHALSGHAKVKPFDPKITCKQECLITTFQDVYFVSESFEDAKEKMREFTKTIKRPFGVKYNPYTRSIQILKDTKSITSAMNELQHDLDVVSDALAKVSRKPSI
Procedure, shortened: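 Inhibition is derived from 5-hydroxy-L-tryptophan fluorescence (540 nm emission, 300 nm excitation) after perchloric acid stop, relative to DMSO vehicle. Recombinant full-length human enzyme (40-80 nM) reacts with 40 μM tryptophan plus 100 μM methyltetrahydropterin, pH 7.6 Tris/DTT/catalase, 15° C, 60 min.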

| IC50 (human TPH1) [nM] | Structure (SMILES) | further results |
| --- | --- | --- |
| – | COc1cccc(-c2ccc([C@@H](Oc3cc(-c4ccc(C[C@H](N)C(=O)O)cc4)nc(N)n3)C(F)(F)F)cc2)c1 [LX1031, (S)-2-Amino-3-(4-{2-amino-6-[(R)-2,2,2-trifluoro-1-(3′-methoxy-biphenyl-4-yl)-ethoxy]-pyrimidin-4-yl}-phenyl)-propionic acid] | brain 5HT (5HT [1]; brain): no effect on brain 5HT; 5HT in the colon (5HT [1]; colon): only a minor reduction; 5HT in the jejunum (5HT [1]; jejunum): lowers 5HT in the jejunum; blood 5HT (5HT [2]): did not affect blood 5HT; urinary 5HIAA reduction (5HT [2]): up to 30% |
| – | N[C@@H](Cc1ccc(Cl)cc1)C(=O)O (racemic) [PCA, p-chlorophenylalanine] | 5HT in the brain (5HT [3]; brain): ~20 % original; 5HT in the gut (5HT [3]; gut): ~50 % original; tumor volume (cholangiocarcinoma): dramatic reduction in tumor volume |
| – | Nc1nc(OC(c2ccc(-c3cccc(F)c3)cc2)C(F)(F)F)cc(-c2ccc(C[C@H](N)C(=O)O)cc2)n1 (some centres unmarked) [LP533401] | brain 5HT concentrations (5HT [4]; brain): without effecting brain concentrations; gut 5HT (5HT [4]; gut): lower gut 5HT |
| 13 | O=C(COc1ccc(CN2CCOCC2)cc1Cl)N1CCc2nc3cc(C(F)(F)F)ccn3c2C1c1cc2cccnc2s1 (centres unmarked) [Example 3.49.2, 2-(2-chloro-4-(morpholinomethyl)phenoxy)-1-(1-(thieno[2,3-b]pyridin-2-yl)-7-(trifluoromethyl)-3,4-dihydroimidazo[1,2-a:5,4-c′]dipyridin-2(1H)-yl)ethan-1-one] | – |
| 32 | COCCCOc1cc(C2c3c(nc4cc(Cl)ccn34)CCN2C(=O)COc2ccc3ccccc3c2)ccc1OC (centres unmarked) [Example 2.11.1, 1-(7-chloro-1-(4-methoxy-3-(3-methoxypropoxy)phenyl)-3,4-dihydroimidazo[1,2-a:5,4-c′]dipyridin-2(1H)-yi)-2-(naphthalen-2-yloxy)ethan-1-one] | – |
| 29 | O=C(COc1ccc(N2CCOCC2)nc1Cl)N1CCc2nc3cnccn3c2C1c1ccc(C2CC2)cc1F (centres unmarked) [Example 17.1.1, 2-((2-chloro-6-morpholinopyridin-3-yl)oxy)-1-(1-(4-cyclopropyl-2-fluorophenyl)-3,4-dihydropyrido[4′,3′:4,5]imidazo[1,2-a]pyrazin-2(1H)-yl)ethan-1-one] | – |
| 69 | O=C(COc1ccc2ccccc2c1)N1CCc2nc3cc(C(F)(F)F)ccn3c2C1c1ncccc1F (centres unmarked) [Example 3.21.1, 1-(1-(3-fluoropyridin-2-yl)-7-(trifluoromethyl)-3,4-dihydroimidazo[1,2-a:5,4-c′]dipyridin-2(1H)-yl)-2-(naphthalen-2-yloxy)ethan-1-one] | – |
| 260 | Cc1csc(C2c3c(nc4cc(C(F)(F)F)ccn34)CCN2C(=O)COc2ccc3ccccc3c2)n1 (centres unmarked) [Example 3.42.1, 1-(1-(4-methylthiazol-2-yl)-7-(trifluoromethyl)-3,4-dihydroimidazo[1,2-a:5,4-c′]dipyridin-2(1H)-yl)-2-(naphthalen-2-yloxy)ethan-1-one] | – |
| 6 | COc1cc(F)c(C2c3c(nc4cc(C(F)(F)F)ccn34)CCN2C(=O)COc2ccc3c(c2)CN(C(C)=O)CC3)cc1OC (centres unmarked) [Example 3.18.6, 2-((2-acetyl-1,2,3,4-tetrahydroisoquinolin-7-yl)oxy)-1-(1-(2-fluoro-4,5-dimethoxyphenyl)-7-(trifluoromethyl)-3,4-dihydroimidazo[1,2-a:5,4-c′]dipyridin-2(1H)-yl)ethan-1-one] | – |
| 338 | Cn1nc(OCC(=O)N2CCc3nc4cc(C(F)(F)F)ccn4c3C2c2ccccc2F)c(Cl)c1C(F)(F)F (centres unmarked) [Example 3.35.3, 2-((4-chloro-1-methyl-5-(trifluoromethyl)-1H-pyrazol-3-yl)oxy)-1-(1-(2-fluorophenyl)-7-(trifluoromethyl)-3,4-dihydroimidazo[1,2-a:5,4-c′]dipyridin-2(1H)-yl)ethan-1-one] | – |
| 23 | O=C(COc1ccc(N2CCOCC2)cc1Cl)N1CCc2nc3ccccn3c2C1c1ncc(C2CC2)cc1F (centres unmarked) [Example 1.12.2, 2-(2-chloro-4-morpholinophenoxy)-1-(1-(5-cyclopropyl-3-fluoropyridin-2-yl)-3,4-dihydroimidazo[1,2-a:5,4-c′]dipyridin-2(1H)-yl)ethan-1-one] | – |
| 161 | Cc1ncc(C2c3c(nc4cc(C(F)(F)F)ccn34)CCN2C(=O)COc2ccc3ccccc3c2)cn1 (centres unmarked) [Example 3.53.1, 1-(1-(2-methylpyrimidin-5-yl)-7-(trifluoromethyl)-3,4-dihydroimidazo[1,2-a:5,4-c′]dipyridin-2(1H)-yl)-2-(naphthalen-2-yloxy)ethan-1-one] | – |
| 130 | O=C(COc1ccc(CN2CCOCC2)cc1Cl)N1CCc2nc3cc(C(F)(F)F)ccn3c2C1c1ncc2ccccn12 (centres unmarked) [Example 3.43.1, 2-(2-chloro-4-(morpholinomethyl)phenoxy)-1-(1-(imidazo[1,5-a]pyridin-3-yl)-7-(trifluoromethyl)-3,4-dihydroimidazo[1,2-a:5,4-c′]dipyridin-2(1H)-yl)ethan-1-one] | – |
